Results taken from PubChem BioAssay AID340 (DTP/NCI, 2004).
Where “and” joins values, the source holds several entries; their conditions need not be identical. Equal values may be shown once. Toxic doses and inconclusive results are not listed.

Tested on: CD2F1 mice, ip reticulum cell sarcoma, survival T/C
Experiment: NCI In Vivo Anticancer Drug Screen. Data for tumor model Reticulum Cell Sarcoma (Kelley Mouse) (intraperitoneal) in CD2F1 (CDF1) mice
Conditions: endpoint: median survival time, higher = longer survival
Procedure: The antitumor activity of compounds was measured in mice bearing transplantable tumors. Survival or tumor size were measured and the results are expressed as the measurement made in the treated group (T) divided by the measurement made in the vehicle treated control group (C). The tumor model used in this assay is Reticulum Cell Sarcoma (Kelley Mouse) (intraperitoneal) in CD2F1 (CDF1) mice

[1] = dose: 1.25 mg/kg/injection, schedule: Q01DX010 (ip), vehicle: saline
[2] = dose: 5.0 mg/kg/injection, schedule: Q01DX010 (ip), vehicle: saline
[3] = dose: 10.0 mg/kg/injection, schedule: Q01DX010 (ip), vehicle: saline
[4] = dose: 8.0 mg/kg/injection, schedule: Q01DX010 (ip), vehicle: saline
[5] = dose: 16.0 mg/kg/injection, schedule: Q01DX010 (ip), vehicle: saline
[6] = dose: 64.0 mg/kg/injection, schedule: Q01DX010 (ip), vehicle: saline
[7] = dose: 62.5 mg/kg/injection, schedule: Q01DX010 (ip), vehicle: saline
[8] = dose: 125.0 mg/kg/injection, schedule: Q01DX010 (ip), vehicle: saline
[9] = dose: 250.0 mg/kg/injection, schedule: Q01DX010 (ip), vehicle: saline
[10] = dose: 20.0 mg/kg/injection, schedule: Q01DX010 (ip), vehicle: saline
[11] = dose: 25.0 mg/kg/injection, schedule: Q01DX010 (ip), vehicle: saline

With `Nc1nc(=S)c2[nH]cnc2[nH]1` the T/C [1] was 150 % of control and 170 % of control, the T/C [2] was 105 % of control and 120 % of control and the T/C [3] was 105 % of control and 108 % of control.
`c1ccc(CNc2ncnc3[nH]ncc23)cc1` was tested, and the T/C [4] was 100 % of control and 105 % of control, the T/C [5] was 100 % of control and 105 % of control and the T/C (dose: 32.0 mg/kg/injection, schedule: Q01DX010 (ip), vehicle: saline) was 100 % of control and 105 % of control. For the same compound, the T/C [6] was 95 % of control and 97 % of control.
In the case of `CCCSc1ncnc2nc[nH]c12`, the T/C (dose: 31.3 mg/kg/injection, schedule: Q01DX010 (ip), vehicle: saline) is reported as 100 % of control and 112 % of control, the T/C [7] is reported as 96 % of control and 106 % of control and the T/C [8] is reported as 96 % of control and 106 % of control. The T/C [9] was 109 % of control.
For `CN(C)c1ccc(/C=C/c2ccnc3ccccc23)cc1`, the T/C [2] was 100 % of control, the T/C [3] was 100 % of control and 112 % of control and the T/C [10] was 96 % of control and 100 % of control. The T/C (dose: 40.0 mg/kg/injection, schedule: Q01DX010 (ip), vehicle: saline) was 96 % of control and 103 % of control.
`Oc1cc(CN(CCCl)CCCl)c(O)cc1CN(CCCl)CCCl` was tested, and the T/C (dose: 0.63 mg/kg/injection, schedule: Q01DX010 (ip), vehicle: saline) was 100 % of control, the T/C [1] was 100 % of control and the T/C (dose: 2.5 mg/kg/injection, schedule: Q01DX010 (ip), vehicle: saline) was 106 % of control. The T/C [2] was 100 % of control.
For `CN(C)[C@@H]1C(=O)C(C(N)=O)=C(O)[C@@]2(O)C(=O)C3=C(O)c4c(O)cccc4C[C@H]3C[C@@H]12`, the T/C (dose: 3.75 mg/kg/injection, schedule: Q01DX010 (ip), vehicle: saline) was 100 % of control, the T/C (dose: 7.5 mg/kg/injection, schedule: Q01DX010 (ip), vehicle: saline) was 105 % of control and 107 % of control and the T/C (dose: 15.0 mg/kg/injection, schedule: Q01DX010 (ip), vehicle: saline) was 100 % of control and 102 % of control. The T/C (dose: 30.0 mg/kg/injection, schedule: Q01DX010 (ip), vehicle: saline) was 94 % of control and 100 % of control.
In the case of `CC/C(=C(/CC)c1ccc(O)cc1)c1ccc(O)cc1`, the T/C (dose: 12.5 mg/kg/injection, schedule: Q01DX010 (sc), vehicle: steriod suspending solution) is reported as 105 % of control and 110 % of control, the T/C (dose: 25.0 mg/kg/injection, schedule: Q01DX010 (sc), vehicle: steriod suspending solution) is reported as 105 % of control and the T/C (dose: 50.0 mg/kg/injection, schedule: Q01DX010 (sc), vehicle: steriod suspending solution) is reported as 100 % of control and 110 % of control. For the same compound, the T/C (dose: 100.0 mg/kg/injection, schedule: Q01DX010 (sc), vehicle: steriod suspending solution) was 105 % of control and 115 % of control.
In the case of `CSc1ncnc2nc[nH]c12`, the T/C [11] is reported as 100 % of control, the T/C (dose: 50.0 mg/kg/injection, schedule: Q01DX010 (ip), vehicle: saline) is reported as 100 % of control and the T/C (dose: 100.0 mg/kg/injection, schedule: Q01DX010 (ip), vehicle: saline) is reported as 93 % of control. The T/C (dose: 200.0 mg/kg/injection, schedule: Q01DX010 (ip), vehicle: saline) was 100 % of control.
In the case of `Nc1nc(SCc2ccccc2)c2[nH]cnc2n1`, the T/C [4] is reported as 106 % of control, the T/C [5] is reported as 106 % of control and the T/C [6] is reported as 116 % of control. The T/C (dose: 128.0 mg/kg/injection, schedule: Q01DX010 (ip), vehicle: saline) was 112 % of control.
For `N=[N+]=CC(=O)OCC(N)C(=O)O` (stereo not given), the T/C (dose: 3.13 mg/kg/injection, schedule: Q01DX010 (ip), vehicle: saline) was 106 % of control, the T/C (dose: 6.25 mg/kg/injection, schedule: Q01DX010 (ip), vehicle: saline) was 113 % of control and the T/C (dose: 12.5 mg/kg/injection, schedule: Q01DX010 (ip), vehicle: saline) was 120 % of control. The T/C [11] was 116 % of control.
With `O=c1cn[nH]c(=O)[nH]1` the T/C [7] was 92 % of control and 100 % of control, the T/C [8] was 95 % of control and 100 % of control and the T/C [9] was 97 % of control. The T/C (dose: 500.0 mg/kg/injection, schedule: Q01DX010 (ip), vehicle: saline) was 90 % of control and 102 % of control.
`O=C(Nc1ccc(NC2=NCCN2)cc1)c1ccc(C(=O)Nc2ccc(NC3=NCCN3)cc2)cc1` was tested, and the T/C (dose: 2.0 mg/kg/injection, schedule: Q01DX010 (ip), vehicle: saline) was 120 % of control and 121 % of control, the T/C (dose: 4.0 mg/kg/injection, schedule: Q01DX010 (ip), vehicle: saline) was 168 % of control and the T/C [4] was 167 % of control and 200 % of control. The T/C [5] was 107 % of control and 121 % of control.
`NC(CCSCc1ccc(N(CCCl)CCCl)cc1)C(=O)O` (stereo not given) was tested, and the T/C (dose: 4.5 mg/kg/injection, schedule: Q01DX010 (ip), vehicle: saline) was 100 % of control, the T/C (dose: 9.0 mg/kg/injection, schedule: Q01DX010 (ip), vehicle: saline) was 106 % of control and 117 % of control and the T/C (dose: 18.0 mg/kg/injection, schedule: Q01DX010 (ip), vehicle: saline) was 106 % of control and 117 % of control. For the same compound, the T/C (dose: 36.0 mg/kg/injection, schedule: Q01DX010 (ip), vehicle: saline) was 110 % of control and 111 % of control.
In the case of `NC(Cc1ccc(N(CCCl)CCCl)cc1)C(=O)O` (stereo not given), the T/C [3] is reported as 100 % of control.
For `OCC1OC(n2cnc3c(=S)nc[nH]c32)C(O)C1O` (stereo not given), the T/C [10] was 117 % of control, the T/C (dose: 80.0 mg/kg/injection, schedule: Q01DX010 (ip), vehicle: saline) was 170 % of control and 177 % of control and the T/C (dose: 160.0 mg/kg/injection, schedule: Q01DX010 (ip), vehicle: saline) was 180 % of control.
